Measured values: patent publication US9771334B2, “Triketone compound and preparation method and use thereof” (SHANDONG CYNDA CHEMICAL CO., LTD., priority 2013, dated 2017)

These compounds were tested on echinochloa crusgalli (assay: Herbicidal activity, pot culture method (primary and secondary screening test)). Details: dose 37.5 g/ha, sprayed at 3-leaf stage, investigated 15 days later.
Assay type: in vivo
Outline: (§1)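 Percent growth inhibition of weeds sprayed at the 3-leaf stage, 150 g/ha in the primary screen and a lower dose in the secondary screen, scored 15 days after treatment under greenhouse conditions.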

SMILES	inhibition ratio, Echinochloa crusgalli [%]
Cn1c(=O)n(-c2ccccc2Cl)c(=O)c2cc(C(=O)C3=C(O)CCCC3=O)ccc21 [Compound 5]	60
Cc1cccc(C)c1-n1c(=O)c2cc(C(=O)C3=C(O)CCCC3=O)ccc2n(C)c1=O [Compound 34]	65
CCn1c(=O)n(-c2ccccc2C)c(=O)c2cc(C(=O)C3=C(O)CC(C)CC3=O)ccc21 (stereo not shown) [Compound 70]	40

Same assay, conditions: dose 75 g/ha, sprayed at 3-leaf stage, investigated 15 days later

SMILES	inhibition ratio, Echinochloa crusgalli [%]
Cn1c(=O)n(-c2ccccc2Cl)c(=O)c2cc(C(=O)C3=C(O)CCCC3=O)ccc21 [Compound 5]	90
Cc1cccc(C)c1-n1c(=O)c2cc(C(=O)C3=C(O)CCCC3=O)ccc2n(C)c1=O [Compound 34]	80
CCn1c(=O)n(-c2ccccc2C)c(=O)c2cc(C(=O)C3=C(O)CC(C)CC3=O)ccc21 (stereo not shown) [Compound 70]	55

Same assay, conditions: primary screening, pot culture, 150 g/ha, sprayed at 3-leaf stage, result 15 days later

SMILES	herbicidal activity inhibition ratio (%), Echinochloa crusgalli [%]
Cn1c(=O)n(-c2ccccc2Cl)c(=O)c2cc(C(=O)C3=C(O)CCCC3=O)ccc21 [Compound 5]	80
Cc1cccc(C)c1-n1c(=O)c2cc(C(=O)C3=C(O)CCCC3=O)ccc2n(C)c1=O [Compound 34]	90
CCn1c(=O)n(-c2ccccc2C)c(=O)c2cc(C(=O)C3=C(O)CC(C)CC3=O)ccc21 (stereo not shown) [Compound 70]	100

These compounds were tested on eclipta prostrata in the same assay as above. Details: dose 37.5 g/ha, sprayed at 3-leaf stage, investigated 15 days later.
Assay type: in vivo
Outline: as §1

SMILES	inhibition ratio, Eclipta prostrata [%]
Cn1c(=O)n(-c2ccccc2Cl)c(=O)c2cc(C(=O)C3=C(O)CCCC3=O)ccc21 [Compound 5]	30
Cc1cccc(C)c1-n1c(=O)c2cc(C(=O)C3=C(O)CCCC3=O)ccc2n(C)c1=O [Compound 34]	30
CCn1c(=O)n(-c2ccccc2C)c(=O)c2cc(C(=O)C3=C(O)CC(C)CC3=O)ccc21 (stereo not shown) [Compound 70]	60

Same assay, conditions: dose 75 g/ha, sprayed at 3-leaf stage, investigated 15 days later

SMILES	inhibition ratio, Eclipta prostrata [%]
Cn1c(=O)n(-c2ccccc2Cl)c(=O)c2cc(C(=O)C3=C(O)CCCC3=O)ccc21 [Compound 5]	40
Cc1cccc(C)c1-n1c(=O)c2cc(C(=O)C3=C(O)CCCC3=O)ccc2n(C)c1=O [Compound 34]	50
CCn1c(=O)n(-c2ccccc2C)c(=O)c2cc(C(=O)C3=C(O)CC(C)CC3=O)ccc21 (stereo not shown) [Compound 70]	78

Same assay, conditions: primary screening, pot culture, 150 g/ha, sprayed at 3-leaf stage, result 15 days later

SMILES	herbicidal activity inhibition ratio (%), Eclipta prostrata [%]
Cn1c(=O)n(-c2ccccc2Cl)c(=O)c2cc(C(=O)C3=C(O)CCCC3=O)ccc21 [Compound 5]	80
Cc1cccc(C)c1-n1c(=O)c2cc(C(=O)C3=C(O)CCCC3=O)ccc2n(C)c1=O [Compound 34]	80
CCn1c(=O)n(-c2ccccc2C)c(=O)c2cc(C(=O)C3=C(O)CC(C)CC3=O)ccc21 (stereo not shown) [Compound 70]	100

Each compound was assayed on amaranthus retroflexus in the same assay as above. Details: dose 37.5 g/ha, sprayed at 3-leaf stage, investigated 15 days later.
Assay type: in vivo
Outline: as §1

SMILES	inhibition ratio, Amaranthus retroflexus [%]
Cn1c(=O)n(-c2ccccc2Cl)c(=O)c2cc(C(=O)C3=C(O)CCCC3=O)ccc21 [Compound 5]	60
Cc1cccc(C)c1-n1c(=O)c2cc(C(=O)C3=C(O)CCCC3=O)ccc2n(C)c1=O [Compound 34]	100
CCn1c(=O)n(-c2ccccc2C)c(=O)c2cc(C(=O)C3=C(O)CC(C)CC3=O)ccc21 (stereo not shown) [Compound 70]	50

Same assay, conditions: dose 75 g/ha, sprayed at 3-leaf stage, investigated 15 days later

SMILES	inhibition ratio, Amaranthus retroflexus [%]
Cn1c(=O)n(-c2ccccc2Cl)c(=O)c2cc(C(=O)C3=C(O)CCCC3=O)ccc21 [Compound 5]	75
Cc1cccc(C)c1-n1c(=O)c2cc(C(=O)C3=C(O)CCCC3=O)ccc2n(C)c1=O [Compound 34]	100
CCn1c(=O)n(-c2ccccc2C)c(=O)c2cc(C(=O)C3=C(O)CC(C)CC3=O)ccc21 (stereo not shown) [Compound 70]	70

Same assay, conditions: primary screening, pot culture, 150 g/ha, sprayed at 3-leaf stage, result 15 days later

SMILES	herbicidal activity inhibition ratio (%), Amaranthus retroflexus [%]
Cn1c(=O)n(-c2ccccc2Cl)c(=O)c2cc(C(=O)C3=C(O)CCCC3=O)ccc21 [Compound 5]	80
Cc1cccc(C)c1-n1c(=O)c2cc(C(=O)C3=C(O)CCCC3=O)ccc2n(C)c1=O [Compound 34]	100
CCn1c(=O)n(-c2ccccc2C)c(=O)c2cc(C(=O)C3=C(O)CC(C)CC3=O)ccc21 (stereo not shown) [Compound 70]	98

These compounds were tested on abutilon theophrasti in the same assay as above. Details: dose 37.5 g/ha, sprayed at 3-leaf stage, investigated 15 days later.
Assay type: in vivo
Outline: as §1

SMILES	inhibition ratio, Abutilon theophrasti [%]
Cn1c(=O)n(-c2ccccc2Cl)c(=O)c2cc(C(=O)C3=C(O)CCCC3=O)ccc21 [Compound 5]	60
Cc1cccc(C)c1-n1c(=O)c2cc(C(=O)C3=C(O)CCCC3=O)ccc2n(C)c1=O [Compound 34]	30
CCn1c(=O)n(-c2ccccc2C)c(=O)c2cc(C(=O)C3=C(O)CC(C)CC3=O)ccc21 (stereo not shown) [Compound 70]	50

Same assay, conditions: dose 75 g/ha, sprayed at 3-leaf stage, investigated 15 days later

SMILES	inhibition ratio, Abutilon theophrasti [%]
Cn1c(=O)n(-c2ccccc2Cl)c(=O)c2cc(C(=O)C3=C(O)CCCC3=O)ccc21 [Compound 5]	70
Cc1cccc(C)c1-n1c(=O)c2cc(C(=O)C3=C(O)CCCC3=O)ccc2n(C)c1=O [Compound 34]	50
CCn1c(=O)n(-c2ccccc2C)c(=O)c2cc(C(=O)C3=C(O)CC(C)CC3=O)ccc21 (stereo not shown) [Compound 70]	73

Same assay, conditions: primary screening, pot culture, 150 g/ha, sprayed at 3-leaf stage, result 15 days later

SMILES	herbicidal activity inhibition ratio (%), Abutilon theophrasti [%]
Cn1c(=O)n(-c2ccccc2Cl)c(=O)c2cc(C(=O)C3=C(O)CCCC3=O)ccc21 [Compound 5]	85
Cc1cccc(C)c1-n1c(=O)c2cc(C(=O)C3=C(O)CCCC3=O)ccc2n(C)c1=O [Compound 34]	90
CCn1c(=O)n(-c2ccccc2C)c(=O)c2cc(C(=O)C3=C(O)CC(C)CC3=O)ccc21 (stereo not shown) [Compound 70]	100

These compounds were tested on setaria viridis in the same assay as above. Details: dose 37.5 g/ha, sprayed at 3-leaf stage, investigated 15 days later.
Assay type: in vivo
Outline: as §1

SMILES	inhibition ratio, Setaria viridis [%]
Cn1c(=O)n(-c2ccccc2Cl)c(=O)c2cc(C(=O)C3=C(O)CCCC3=O)ccc21 [Compound 5]	60
Cc1cccc(C)c1-n1c(=O)c2cc(C(=O)C3=C(O)CCCC3=O)ccc2n(C)c1=O [Compound 34]	70
CCn1c(=O)n(-c2ccccc2C)c(=O)c2cc(C(=O)C3=C(O)CC(C)CC3=O)ccc21 (stereo not shown) [Compound 70]	83

Same assay, conditions: dose 75 g/ha, sprayed at 3-leaf stage, investigated 15 days later

SMILES	inhibition ratio, Setaria viridis [%]
Cn1c(=O)n(-c2ccccc2Cl)c(=O)c2cc(C(=O)C3=C(O)CCCC3=O)ccc21 [Compound 5]	90
Cc1cccc(C)c1-n1c(=O)c2cc(C(=O)C3=C(O)CCCC3=O)ccc2n(C)c1=O [Compound 34]	78
CCn1c(=O)n(-c2ccccc2C)c(=O)c2cc(C(=O)C3=C(O)CC(C)CC3=O)ccc21 (stereo not shown) [Compound 70]	93

Same assay, conditions: primary screening, pot culture, 150 g/ha, sprayed at 3-leaf stage, result 15 days later

SMILES	herbicidal activity inhibition ratio (%), Setaria viridis [%]
Cn1c(=O)n(-c2ccccc2Cl)c(=O)c2cc(C(=O)C3=C(O)CCCC3=O)ccc21 [Compound 5]	100
Cc1cccc(C)c1-n1c(=O)c2cc(C(=O)C3=C(O)CCCC3=O)ccc2n(C)c1=O [Compound 34]	80
CCn1c(=O)n(-c2ccccc2C)c(=O)c2cc(C(=O)C3=C(O)CC(C)CC3=O)ccc21 (stereo not shown) [Compound 70]	100

Each compound was assayed on digitaria sanguinalis in the same assay as above. Details: dose 37.5 g/ha, sprayed at 3-leaf stage, investigated 15 days later.
Assay type: in vivo
Outline: as §1

SMILES	inhibition ratio, Digitaria sanguinalis [%]
Cn1c(=O)n(-c2ccccc2Cl)c(=O)c2cc(C(=O)C3=C(O)CCCC3=O)ccc21 [Compound 5]	40
Cc1cccc(C)c1-n1c(=O)c2cc(C(=O)C3=C(O)CCCC3=O)ccc2n(C)c1=O [Compound 34]	55
CCn1c(=O)n(-c2ccccc2C)c(=O)c2cc(C(=O)C3=C(O)CC(C)CC3=O)ccc21 (stereo not shown) [Compound 70]	80

Same assay, conditions: dose 75 g/ha, sprayed at 3-leaf stage, investigated 15 days later

SMILES	inhibition ratio, Digitaria sanguinalis [%]
Cn1c(=O)n(-c2ccccc2Cl)c(=O)c2cc(C(=O)C3=C(O)CCCC3=O)ccc21 [Compound 5]	90
Cc1cccc(C)c1-n1c(=O)c2cc(C(=O)C3=C(O)CCCC3=O)ccc2n(C)c1=O [Compound 34]	75
CCn1c(=O)n(-c2ccccc2C)c(=O)c2cc(C(=O)C3=C(O)CC(C)CC3=O)ccc21 (stereo not shown) [Compound 70]	75

Same assay, conditions: primary screening, pot culture, 150 g/ha, sprayed at 3-leaf stage, result 15 days later

SMILES	herbicidal activity inhibition ratio (%), Digitaria sanguinalis [%]
Cn1c(=O)n(-c2ccccc2Cl)c(=O)c2cc(C(=O)C3=C(O)CCCC3=O)ccc21 [Compound 5]	100
Cc1cccc(C)c1-n1c(=O)c2cc(C(=O)C3=C(O)CCCC3=O)ccc2n(C)c1=O [Compound 34]	83
CCn1c(=O)n(-c2ccccc2C)c(=O)c2cc(C(=O)C3=C(O)CC(C)CC3=O)ccc21 (stereo not shown) [Compound 70]	90

These compounds were tested on maize (assay: Crop safety test (pot culture method)). Details: dose 75 g/ha, plants with about 4-5 leaves, investigated 15 days later.
Assay type: in vivo
Source text: (§2) This test example is for describing crop safety of the compound with a structure shown in Formula (1). Crop safety test method (pot culture method): The test targets are wheat and maize. Take flowerpots with an inner diameter of 12 cm, put composite soil (vegetable garden soil:seedling matrix=1:2, v/v) into them till ¾ of flowerpot height, directly sow the crop seeds (budding rate>85%), cover them with 0.2 cm thick soil, and keep the plants for future use when they grow to have about 4-5 leaves. Each compound is dissolved in N,N-dimethylformamide at doses of 75 g/ha or 150 g/ha and diluted with distilled water containing 0.1% tween-80 emulsifier to form 0.1 g/L (75 g/ha) solution and 0.2 g/L (150 g/ha) solution respectively. The solutions are sprayed through an automatic spray tower. After the solutions on weed leaves are dried in the air, the flowerpots are moved into a greenhouse for cultivation. The result is investigated 15 days later.

SMILES	inhibition ratio, Maize (crop safety) [%]
Cn1c(=O)n(-c2ccccc2Cl)c(=O)c2cc(C(=O)C3=C(O)CCCC3=O)ccc21 [Compound 5]	0
Cc1cccc(C)c1-n1c(=O)c2cc(C(=O)C3=C(O)CCCC3=O)ccc2n(C)c1=O [Compound 34]	0
CCn1c(=O)n(-c2ccccc2C)c(=O)c2cc(C(=O)C3=C(O)CC(C)CC3=O)ccc21 (stereo not shown) [Compound 70]	0

Same assay, conditions: dose 150 g/ha

SMILES	safety to maize fields (in words)
Cc1cccc(C)c1-n1c(=O)c2cc(C(=O)C3=C(O)CCCC3=O)ccc2n(C)c1=O [Compound 34]	highly safe

Same assay, conditions: dose 150 g/ha, plants with about 4-5 leaves, investigated 15 days later

SMILES	inhibition ratio, Maize (crop safety) [%]
Cn1c(=O)n(-c2ccccc2Cl)c(=O)c2cc(C(=O)C3=C(O)CCCC3=O)ccc21 [Compound 5]	15
Cc1cccc(C)c1-n1c(=O)c2cc(C(=O)C3=C(O)CCCC3=O)ccc2n(C)c1=O [Compound 34]	0
CCn1c(=O)n(-c2ccccc2C)c(=O)c2cc(C(=O)C3=C(O)CC(C)CC3=O)ccc21 (stereo not shown) [Compound 70]	15

The compounds below were run on wheat (assay: Crop safety test (pot culture method)). Details: dose 75 g/ha, plants with about 4-5 leaves, investigated 15 days later.
Assay type: in vivo
Source text: as §2

SMILES	inhibition ratio, Wheat (crop safety) [%]
Cn1c(=O)n(-c2ccccc2Cl)c(=O)c2cc(C(=O)C3=C(O)CCCC3=O)ccc21 [Compound 5]	0
Cc1cccc(C)c1-n1c(=O)c2cc(C(=O)C3=C(O)CCCC3=O)ccc2n(C)c1=O [Compound 34]	0
CCn1c(=O)n(-c2ccccc2C)c(=O)c2cc(C(=O)C3=C(O)CC(C)CC3=O)ccc21 (stereo not shown) [Compound 70]	0

Same assay, conditions: dose 150 g/ha, plants with about 4-5 leaves, investigated 15 days later

SMILES	inhibition ratio, Wheat (crop safety) [%]
Cn1c(=O)n(-c2ccccc2Cl)c(=O)c2cc(C(=O)C3=C(O)CCCC3=O)ccc21 [Compound 5]	0
Cc1cccc(C)c1-n1c(=O)c2cc(C(=O)C3=C(O)CCCC3=O)ccc2n(C)c1=O [Compound 34]	5
CCn1c(=O)n(-c2ccccc2C)c(=O)c2cc(C(=O)C3=C(O)CC(C)CC3=O)ccc21 (stereo not shown) [Compound 70]	10
